Reference: paper PMC10192418, “High-affinity peptides developed against calprotectin and their application as synthetic ligands in diagnostic assays” (Nature Communications, 2023)
Where two headings read alike, the source gives them in different places. Numbered stars: 1 amine (or outer) side, 2 acyl side, 3 side chain; on linkers, the order of the positions; unused ones are H or OH. Bridge positions count the residues as written; N and C are the ends. Peptide text beside a SMILES is read from it. * marks the point of attachment. 5FAM = O=C1OC2(c3ccc(O)cc3Oc3cc(O)ccc32)c2ccc(C(=O)*)cc21; Pyridine(2,6-diCH2) = c1cc(C[*:1])nc(C[*:2])c1

Molecular target: T1, calprotectin tetramer (recombinant B-RCAL, His6-linker-S100A9-linker-S100A8) (Homo sapiens, UniProt P05109)
T1 construct: we used the recombinant protein without removing the His-tag or cleaving the 8-amino acid linker between the two proteins; co-authors' company
T1 sequence (P05109 with tags, fused parts or gaps): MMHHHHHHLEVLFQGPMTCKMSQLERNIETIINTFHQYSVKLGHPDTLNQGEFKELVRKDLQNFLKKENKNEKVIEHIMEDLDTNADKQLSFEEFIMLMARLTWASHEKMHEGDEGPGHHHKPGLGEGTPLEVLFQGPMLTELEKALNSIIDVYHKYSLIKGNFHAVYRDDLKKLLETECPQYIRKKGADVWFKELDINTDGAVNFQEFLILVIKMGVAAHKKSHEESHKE
Assay: Fluorescence polarization (FP) binding to recombinant calprotectin B-RCAL tetramer in presence of CaCl2
Protocol: Calprotectin was serially diluted in 20 mM HEPES, 100 mM NaCl, 2 mM CaCl2, pH 7.5, and 1 mM DTT with 0.01% (v/v) Tween-20. Volumes of 16 μL of protein were added to 4 μL of fluorescent peptide (20 nM final concentration) in black 384-well microtiter plates. Fluorescence anisotropy was measured on a microwell plate reader (Infinite M200Pro, Tecan) with filters for excitation at 485 nm and emission at 535 nm. The dissociation constant (Kd) was calculated using a following Eq. (1) using Prism 5 software (GraphPad):1 A=Af+Ab−Af×LT+KD+PT−LT+KD+PT^2−4LTPT/2LT where A is anisotropy, Af and Ab are the anisotropy values for free and bound ligands, respectively. [L]T is the concentration of the total fluorescent ligand and [P]T the concentration of the protein.

[1] = FP, alanine scan of linear peptide 3, 20 nM peptide, 2 mM CaCl2, one measurement, NB = non-binding

Row | SMILES | Kd [1] | other results
1 | CSCC[C@H](NC(=O)[C@@H]1CCCN1C(=O)[C@H](Cc1ccccc1)NC(=O)[C@H](C)NC(=O)[C@@H](NC(=O)[C@H](CO)NC(=O)[C@H](CCC(=O)O)NC(=O)[C@@H]1CCCN1C(=O)[C@H](CO)NC(=O)[C@H](C)NC(=O)c1ccc2c(c1)C(=O)OC21c2ccc(O)cc2Oc2cc(O)ccc21)C(C)C)C(=O)N[C@@H](Cc1ccccc1)C(=O)N[C@@H](CCC(N)=O)C(=O)N[C@@H](CO)C(=O)N[C@@H](Cc1c[nH]cn1)C(=O)N[C@@H](Cc1c[nH]c2ccccc12)C(=O)N[C@@H](Cc1ccc(O)cc1)C(=O)N[C@@H](CO)C(=O)NCC(N)=O [Peptide R1A] (5FAM-ASPESVAFPMFQSHWYSG-NH2) | 32 nM | –
2 | CC[C@H](C)[C@@H]1NC(=O)[C@H](CO)NC(=O)[C@H](Cc2c[nH]c3ccccc23)NC(=O)[C@H](CCCNC(=N)N)NC(=O)[C@@H](NC(=O)[C@H](Cc2ccccc2)NC(=O)[C@@H]2CCCN2C(=O)c2ccc3c(c2)C(=O)OC32c3ccc(O)cc3Oc3cc(O)ccc32)CSCc2cccc(n2)CSC[C@@H](C(=O)N[C@@H](Cc2c[nH]cn2)C(N)=O)NC(=O)[C@H](CC(N)=O)NC(=O)[C@H](CC(=O)O)NC1=O [Peptide 9] (5FAM-PFCRWSIDNCH-NH2; linker 3-10 via Pyridine(2,6-diCH2)) | – | Kd (from fluorescence anisotropy titration, SI Figure 3): 29000 nM
3 | CSCC[C@@H]1NC(=O)[C@@H]2CCCN2C(=O)[C@H](Cc2ccccc2)NC(=O)[C@H](C)NC(=O)[C@H](C(C)C)NC(=O)[C@@H]2CSCC(=O)CSC[C@H](NC(=O)[C@H](CCC(N)=O)NC(=O)[C@H](Cc3ccccc3)NC1=O)C(=O)N[C@@H](Cc1c[nH]cn1)C(=O)N[C@@H](Cc1c[nH]c3ccccc13)C(=O)N[C@@H](Cc1ccc(O)cc1)C(=O)N[C@H](C(=O)NCC(N)=O)CSCC(=O)CSC[C@H](NC(=O)[C@H](CCCNC(=N)N)NC(=O)c1ccc3c(c1)C(=O)OC31c3ccc(O)cc3Oc3cc(O)ccc31)C(=O)N1CCC[C@H]1C(=O)N[C@@H](CCC(=O)O)C(=O)N2 (single isomer, unassigned) [Peptide 3 Isomer 3] | – | FP increase upon binding to calprotectin (FP, 2 mM CaCl2): 10–15%
4 | CSCC[C@H](NC(=O)[C@@H]1CCCN1C(=O)[C@H](Cc1ccccc1)NC(=O)[C@H](C)NC(=O)[C@@H](NC(=O)[C@H](CO)NC(=O)[C@H](CCC(=O)O)NC(=O)[C@H](C)NC(=O)[C@H](CO)NC(=O)[C@H](CCCNC(=N)N)NC(=O)c1ccc2c(c1)C(=O)OC21c2ccc(O)cc2Oc2cc(O)ccc21)C(C)C)C(=O)N[C@@H](Cc1ccccc1)C(=O)N[C@@H](CCC(N)=O)C(=O)N[C@@H](CO)C(=O)N[C@@H](Cc1c[nH]cn1)C(=O)N[C@@H](Cc1c[nH]c2ccccc12)C(=O)N[C@@H](Cc1ccc(O)cc1)C(=O)N[C@@H](CO)C(=O)NCC(N)=O [Peptide P3A] (5FAM-RSAESVAFPMFQSHWYSG-NH2) | 28 nM | –
5 | CSCC[C@H](NC(=O)[C@@H]1CCCN1C(=O)[C@H](Cc1ccccc1)NC(=O)[C@H](C)NC(=O)[C@@H](NC(=O)[C@H](CO)NC(=O)[C@H](C)NC(=O)[C@@H]1CCCN1C(=O)[C@H](CO)NC(=O)[C@H](CCCNC(=N)N)NC(=O)c1ccc2c(c1)C(=O)OC21c2ccc(O)cc2Oc2cc(O)ccc21)C(C)C)C(=O)N[C@@H](Cc1ccccc1)C(=O)N[C@@H](CCC(N)=O)C(=O)N[C@@H](CO)C(=O)N[C@@H](Cc1c[nH]cn1)C(=O)N[C@@H](Cc1c[nH]c2ccccc12)C(=O)N[C@@H](Cc1ccc(O)cc1)C(=O)N[C@@H](CO)C(=O)NCC(N)=O [Peptide E4A] (5FAM-RSPASVAFPMFQSHWYSG-NH2) | 26 nM | –
6 | CSCC[C@H](NC(=O)[C@@H]1CCCN1C(=O)[C@H](Cc1ccccc1)NC(=O)[C@H](C)NC(=O)[C@@H](NC(=O)[C@H](CO)NC(=O)[C@H](CCC(=O)O)NC(=O)[C@@H]1CCCN1C(=O)[C@H](CO)NC(=O)[C@H](CCCNC(=N)N)NC(=O)c1ccc2c(c1)C(=O)OC21c2ccc(O)cc2Oc2cc(O)ccc21)C(C)C)C(=O)N[C@@H](Cc1ccccc1)C(=O)N[C@@H](C)C(=O)N[C@@H](CO)C(=O)N[C@@H](Cc1c[nH]cn1)C(=O)N[C@@H](Cc1c[nH]c2ccccc12)C(=O)N[C@@H](Cc1ccc(O)cc1)C(=O)N[C@@H](CO)C(=O)NCC(N)=O [Peptide Q12A] (5FAM-RSPESVAFPMFASHWYSG-NH2) | 27 nM | –
7 | CSCC[C@H](NC(=O)[C@@H]1CCCN1C(=O)[C@H](Cc1ccccc1)NC(=O)[C@H](C)NC(=O)[C@@H](NC(=O)[C@H](CO)NC(=O)[C@H](CCC(=O)O)NC(=O)[C@@H]1CCCN1C(=O)[C@H](CO)NC(=O)[C@H](CCCNC(=N)N)NC(=O)c1ccc2c(c1)C(=O)OC21c2ccc(O)cc2Oc2cc(O)ccc21)C(C)C)C(=O)N[C@@H](Cc1ccccc1)C(=O)N[C@@H](CCC(N)=O)C(=O)N[C@@H](CO)C(=O)N[C@@H](Cc1c[nH]cn1)C(=O)N[C@@H](Cc1c[nH]c2ccccc12)C(=O)N[C@@H](Cc1ccc(O)cc1)C(=O)N[C@@H](CO)C(=O)N[C@@H](C)C(N)=O [Peptide G18A] (5FAM-RSPESVAFPMFQSHWYSA-NH2) | 31 nM | –
8 | CSCC[C@H](NC(=O)[C@@H]1CCCN1C(=O)[C@H](Cc1ccccc1)NC(=O)[C@H](C)NC(=O)[C@H](C)NC(=O)[C@H](CO)NC(=O)[C@H](CCC(=O)O)NC(=O)[C@@H]1CCCN1C(=O)[C@H](CO)NC(=O)[C@H](CCCNC(=N)N)NC(=O)c1ccc2c(c1)C(=O)OC21c2ccc(O)cc2Oc2cc(O)ccc21)C(=O)N[C@@H](Cc1ccccc1)C(=O)N[C@@H](CCC(N)=O)C(=O)N[C@@H](CO)C(=O)N[C@@H](Cc1c[nH]cn1)C(=O)N[C@@H](Cc1c[nH]c2ccccc12)C(=O)N[C@@H](Cc1ccc(O)cc1)C(=O)N[C@@H](CO)C(=O)NCC(N)=O [Peptide V6A] (5FAM-RSPESAAFPMFQSHWYSG-NH2) | 39 nM | –
9 | CSCC[C@H](NC(=O)[C@@H]1CCCN1C(=O)[C@H](Cc1ccccc1)NC(=O)[C@H](C)NC(=O)[C@@H](NC(=O)[C@@H]1CSCC(=O)CSC[C@H](NC(=O)[C@H](CCCNC(=N)N)NC(=O)c2ccc3c(c2)C(=O)OC32c3ccc(O)cc3Oc3cc(O)ccc32)C(=O)N2CCC[C@H]2C(=O)N[C@@H](CCC(=O)O)C(=O)N1)C(C)C)C(=O)N[C@@H](Cc1ccccc1)C(=O)N[C@@H](CCC(N)=O)C(=O)N[C@@H](CO)C(=O)N[C@@H](Cc1c[nH]cn1)C(=O)N[C@@H](Cc1c[nH]c2ccccc12)C(=O)N[C@@H](Cc1ccc(O)cc1)C(=O)N[C@@H](CO)C(=O)NCC(N)=O (single isomer, unassigned) [Peptide 3 Isomer 1a] | – | Kd: 16.9 nM
10 | CSCC[C@@H]1NC(=O)[C@@H]2CCCN2C(=O)[C@H](Cc2ccccc2)NC(=O)[C@H](C)NC(=O)[C@H](C(C)C)NC(=O)[C@@H]2CSCC(=O)CSC[C@@H](C(=O)NCC(N)=O)NC(=O)[C@H](Cc3ccc(O)cc3)NC(=O)[C@H](Cc3c[nH]c4ccccc34)NC(=O)[C@H](Cc3c[nH]cn3)NC(=O)[C@H](CSCC(=O)CSC[C@H](NC(=O)[C@H](CCCNC(=N)N)NC(=O)c3ccc4c(c3)C(=O)OC43c4ccc(O)cc4Oc4cc(O)ccc43)C(=O)N3CCC[C@H]3C(=O)N[C@@H](CCC(=O)O)C(=O)N2)NC(=O)[C@H](CCC(N)=O)NC(=O)[C@H](Cc2ccccc2)NC1=O (single isomer, unassigned) [Peptide 3 Isomer 2] | – | FP increase upon binding to calprotectin (FP, 2 mM CaCl2): 10–15%
